Measured values from patent US12077503B2, “Substituted cyclic amides and their use as herbicides” (FMC CORPORATION, priority 2015, dated 2024).

Experiments:
Assay type in all cases: in vivo
Kochia (Kochia scoparia) [1] = test: Test A preemergence; settings: Bassia scoparia, pre-emergence, 240 h, preemergence, 0 to 100 scale where 0 is no effect and 100 is complete control, read-out: Kochia plant response rating
Method in brief: (§1)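 In a loam soil and sand blend, planted seeds got a preemergence directed soil spray, and young plants at the one- to two-leaf stage, 2–10 cm high, got a postemergence application; ~10 d greenhouse hold; injury rated visually, 0 = none, 100 = complete control.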

[2] = test system: barnyardgrass (Echinochloa crus-galli); test: Test A preemergence; settings: Echinochloa crus-galli, pre-emergence, 240 h, preemergence, 0 to 100 scale where 0 is no effect and 100 is complete control, read-out: Barnyardgrass plant response rating
Method in brief: as §1

[3] = test system: giant foxtail (Setaria faberii); test: Test A preemergence; settings: Setaria faberi, pre-emergence, 240 h, preemergence, 0 to 100 scale where 0 is no effect and 100 is complete control, read-out: Foxtail, Giant plant response rating
Method in brief: as §1

[4] = test system: pigweed (Amaranthus retroflexus); test: Test A preemergence; settings: Amaranthus retroflexus, pre-emergence, 240 h, preemergence, 0 to 100 scale where 0 is no effect and 100 is complete control, read-out: Pigweed plant response rating
[5] = test system: ragweed (common ragweed, Ambrosia elatior); test: Test A preemergence; settings: Ambrosia artemisiifolia, pre-emergence, 240 h, preemergence, 0 to 100 scale where 0 is no effect and 100 is complete control, read-out: Ragweed plant response rating
Method in brief: as §1

[6] = test system: ryegrass, Italian (Italian ryegrass, Lolium multiflorum); test: Test A preemergence; settings: Lolium multiflorum, pre-emergence, 240 h, preemergence, 0 to 100 scale where 0 is no effect and 100 is complete control, read-out: Ryegrass, Italian plant response rating
Method in brief: as §1

[7] = test system: Galium (catchweed bedstraw, Galium aparine); test: Test A postemergence; settings: Galium, post-emergence, 240 h, Postemergence
Method in brief: as §1

Kochia (Kochia scoparia) [8] = test: Test A postemergence; settings: Bassia scoparia, post-emergence, 240 h, Postemergence
Method in brief: as §1

[9] = test system: giant foxtail (Setaria faberii); test: Test A postemergence; settings: Setaria faberi, post-emergence, 240 h, Postemergence
Method in brief: as §1

[10] = test system: pigweed (Amaranthus retroflexus); test: Test A postemergence; settings: Amaranthus retroflexus, post-emergence, 240 h, Postemergence
Method in brief: as §1

[11] = test system: wheat (Triticum aestivum); test: Test A postemergence; settings: Triticum aestivum, post-emergence, 240 h, Postemergence
Method in brief: as §1

[12] = test system: barnyardgrass (Echinochloa crus-galli); test: Test B flooded paddy test; settings: Echinochloa crus-galli, 250 g ai/ha, Flood; 0 to 100 scale where 0 is no effect and 100 is complete control; read-out: Barnyardgrass plant response rating
Method in brief: (§2)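 Plants at 2-leaf stage flooded to 3 cm above soil, with compounds applied directly to paddy water and that depth maintained. Plants kept in greenhouse 13–15 d. Visual rating versus controls on a 0 (no effect) to 100 (complete control) scale.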

[13] = test system: ducksalad (Heteranthera limosa); test: Test B flooded paddy test; settings: Heteranthera limosa, 250 g ai/ha, Flood; 0 to 100 scale where 0 is no effect and 100 is complete control; read-out: Ducksalad plant response rating
Method in brief: as §2

rice (Oryra sativa) = test: Test B flooded paddy test; settings: Oryza sativa, 250 g ai/ha, Flood; 0 to 100 scale where 0 is no effect and 100 is complete control; read-out: Rice plant response rating
Method in brief: as §2

[14] = test system: sedge, umbrella (small-flower umbrella sedge, Cyperus difformis); test: Test B flooded paddy test; settings: Cyperus difformis, 250 g ai/ha, Flood; 0 to 100 scale where 0 is no effect and 100 is complete control; read-out: Sedge, Umbrella plant response rating
Method in brief: as §2

[15] = 125 g ai/ha, visual injury rating, approximately 10 d

COc1cc([C@H]2CN(C)C(=O)[C@@H]2C(=O)Nc2ccccc2S(C)(=O)=O)ccc1F [Compound 1302]
20%: pest or weed control at 500 g/ha (Kochia (Kochia scoparia) [8]; 500 g ai/ha, visual injury, 0 to 100 scale (0 no effect, 100 complete control), approx. 10 d, read-out: Plant response rating, Kochia) | pest or weed control at 250 g/ha [12]
60%: pest or weed control at 500 g/ha (Kochia (Kochia scoparia) [1]; 500 g ai/ha) | pest or weed control at 125 g/ha [2, 15]
90%: pest or weed control at 500 g/ha ([2]; 500 g ai/ha) | pest or weed control at 125 g/ha [3, 15] | pest or weed control at 500 g/ha ([3]; 500 g ai/ha)
30%: pest or weed control at 500 g/ha ([4]; 500 g ai/ha) | pest or weed control at 500 g/ha ([7]; 500 g ai/ha, visual injury, 0 to 100 scale (0 no effect, 100 complete control), approx. 10 d, read-out: Plant response rating, Galium) | pest or weed control at 125 g/ha ([9]; 125 g ai/ha, visual rating about 10 d after treatment, read-out: Foxtail, Giant plant response rating (0 to 100 scale))
0%: pest or weed control at 125 g/ha (Kochia (Kochia scoparia) [1]; [15]) | pest or weed control at 125 g/ha [4, 15] | pest or weed control at 125 g/ha [5, 15] | pest or weed control at 125 g/ha [6, 15] | pest or weed control at 500 g/ha ([6]; 500 g ai/ha) | pest or weed control at 125 g/ha ([7]; 125 g ai/ha, visual rating about 10 d after treatment, read-out: Galium plant response rating (0 to 100 scale)) | pest or weed control at 125 g/ha (Kochia (Kochia scoparia) [8]; 125 g ai/ha, visual rating about 10 d after treatment, read-out: Kochia plant response rating (0 to 100 scale)) | pest or weed control at 125 g/ha ([10]; 125 g ai/ha, visual rating about 10 d after treatment, read-out: Pigweed plant response rating (0 to 100 scale)) | pest or weed control at 500 g/ha ([10]; 500 g ai/ha, visual injury, 0 to 100 scale (0 no effect, 100 complete control), approx. 10 d, read-out: Plant response rating, Pigweed) | plant injury at 125 g/ha ([11]; 125 g ai/ha, visual rating about 10 d after treatment, read-out: Wheat plant response rating (0 to 100 scale)) | plant injury at 500 g/ha ([11]; 500 g ai/ha, visual injury, 0 to 100 scale (0 no effect, 100 complete control), approx. 10 d, read-out: Plant response rating, Wheat) | pest or weed control at 250 g/ha [14]
80%: pest or weed control at 500 g/ha ([9]; 500 g ai/ha, visual injury, 0 to 100 scale (0 no effect, 100 complete control), approx. 10 d, read-out: Plant response rating, Foxtail, Giant) | pest or weed control at 250 g/ha [13]
15%: pest or weed control at 250 g/ha (rice (Oryra sativa))
50%: pest or weed control at 500 g/ha ([5]; 500 g ai/ha)
